In PMC10573892, “β-Lactam TRPM8 Antagonists Derived from Phe-Phenylalaninol Conjugates: Structure–Activity Relationships and Antiallodynic Activity” (International Journal of Molecular Sciences, 2023):

What was measured:
[1] = target: T1, hTRPV1 (Homo sapiens, UniProt Q8NER1); experiment: TRPV1 channel Ca2+ microfluorimetry (capsaicin 30 nM); type: cell-based
T1 construct: Eurofins-CEREP or Eurofins-PANLABS (contract assay)
Description: (§1) The effects of compound 34 have been evaluated on different ion channels and receptors implicated in pain-related processes to assess the selectivity for TRPM8 channels. First, some TRP channels that play a role in temperature integration and nociception were selected, including hTRPV1, hTRPV3, hTRPA1 and TRPM3. Additionally, the evaluation encompassed the hASIC3 channel with widespread distribution within the peripheral nervous system and contributions to the excitability of primary sensory neurons. In each instance, the compound was subjected to evaluation at a consistent concentration of 10 µM.
(§2) Calcium fluorometry, Patch-Clamp assays and in vivo experiments were performed using the methodology previously described for TRPM8 [35] or TRPM3 [61]. In the Patch -Clamp experiments, the intracellular pipette solution contained (in mM) 140 KCl, 5 EGTA, and 10 mM HEPES, adjusted to pH 7.2 with KOH, and the extracellular solution contained (in mM) 140 NaCl, 2 CaCl2, 1 MgCl2, 10 D-glucose and 10 HEPES, adjusted to pH 7.4 with NaOH. Selectivity against TRPV1, TRPV3, TRPA1 and ASIC3 was subcontracted to Eurofins-CEREP or Eurofins-PANLABS (see ref. [35] for more details).

[2] = target: hTRPM3 (Homo sapiens, UniProt Q9HCF6); experiment: TRPM3 channel Ca2+ microfluorimetry (pregnenolone sulfate 50 µM); type: cell-based; settings: 10 μM; agonist pregnenolone sulfate 50 µM; read-out: % Channel Inhibition at 10 μM hTRPM3
hTRPM3, sequence (Q9HCF6 whole entry): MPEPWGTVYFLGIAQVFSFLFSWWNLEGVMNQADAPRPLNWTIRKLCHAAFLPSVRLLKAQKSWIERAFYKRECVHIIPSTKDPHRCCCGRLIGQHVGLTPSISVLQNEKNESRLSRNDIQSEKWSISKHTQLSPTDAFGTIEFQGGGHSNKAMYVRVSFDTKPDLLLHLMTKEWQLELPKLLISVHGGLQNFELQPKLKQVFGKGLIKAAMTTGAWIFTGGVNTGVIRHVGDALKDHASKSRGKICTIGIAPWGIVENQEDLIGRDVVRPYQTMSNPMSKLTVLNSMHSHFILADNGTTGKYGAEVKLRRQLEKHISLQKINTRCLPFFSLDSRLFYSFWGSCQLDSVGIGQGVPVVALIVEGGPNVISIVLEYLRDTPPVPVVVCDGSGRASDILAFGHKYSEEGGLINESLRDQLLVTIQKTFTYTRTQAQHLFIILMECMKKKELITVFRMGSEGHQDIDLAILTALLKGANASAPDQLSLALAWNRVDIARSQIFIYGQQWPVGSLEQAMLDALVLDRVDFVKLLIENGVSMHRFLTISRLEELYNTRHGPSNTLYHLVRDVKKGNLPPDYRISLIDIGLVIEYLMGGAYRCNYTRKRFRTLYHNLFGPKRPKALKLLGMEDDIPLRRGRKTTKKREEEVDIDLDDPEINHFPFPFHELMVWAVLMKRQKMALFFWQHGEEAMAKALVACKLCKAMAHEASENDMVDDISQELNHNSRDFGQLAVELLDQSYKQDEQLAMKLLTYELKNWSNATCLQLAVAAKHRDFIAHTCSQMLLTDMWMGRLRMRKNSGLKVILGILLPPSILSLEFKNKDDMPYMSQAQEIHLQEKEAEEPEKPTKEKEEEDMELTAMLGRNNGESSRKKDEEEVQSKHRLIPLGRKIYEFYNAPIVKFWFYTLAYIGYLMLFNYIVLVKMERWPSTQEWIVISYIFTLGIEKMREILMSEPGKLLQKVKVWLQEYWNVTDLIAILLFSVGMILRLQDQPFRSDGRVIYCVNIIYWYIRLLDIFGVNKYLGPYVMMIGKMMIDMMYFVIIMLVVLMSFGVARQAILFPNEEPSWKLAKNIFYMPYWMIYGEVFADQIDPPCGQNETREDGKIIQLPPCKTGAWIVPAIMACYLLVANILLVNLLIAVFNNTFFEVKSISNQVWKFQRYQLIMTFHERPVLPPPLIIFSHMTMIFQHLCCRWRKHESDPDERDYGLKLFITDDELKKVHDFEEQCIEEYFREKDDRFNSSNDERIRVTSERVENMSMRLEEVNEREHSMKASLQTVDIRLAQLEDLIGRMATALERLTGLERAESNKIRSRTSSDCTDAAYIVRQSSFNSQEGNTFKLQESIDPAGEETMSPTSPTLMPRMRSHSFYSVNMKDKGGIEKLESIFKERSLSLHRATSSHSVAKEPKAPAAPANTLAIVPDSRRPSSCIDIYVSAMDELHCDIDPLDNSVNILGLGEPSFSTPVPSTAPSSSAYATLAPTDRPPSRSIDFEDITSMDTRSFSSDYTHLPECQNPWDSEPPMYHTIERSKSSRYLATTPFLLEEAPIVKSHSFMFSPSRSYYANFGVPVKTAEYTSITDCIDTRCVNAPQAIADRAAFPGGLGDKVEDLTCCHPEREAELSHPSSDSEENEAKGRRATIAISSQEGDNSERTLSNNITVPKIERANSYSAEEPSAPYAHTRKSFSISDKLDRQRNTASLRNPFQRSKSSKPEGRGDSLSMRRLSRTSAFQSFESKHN
Procedure: as §1, with “First,” for “The effects of compound 34 have been evaluated on different ion channels and receptors implicated in pain-related processes to assess the selectivity for TRPM8 channels. First,”
as §2

[3] = target: T2, hASIC3 channel (Homo sapiens, UniProt Q9UHC3); experiment: ASIC3 channel functional assay (buffer pH 5.5); type: cell-based
T2 construct: Eurofins-CEREP or Eurofins-PANLABS (contract assay)
T2 sequence (Q9UHC3 1-531): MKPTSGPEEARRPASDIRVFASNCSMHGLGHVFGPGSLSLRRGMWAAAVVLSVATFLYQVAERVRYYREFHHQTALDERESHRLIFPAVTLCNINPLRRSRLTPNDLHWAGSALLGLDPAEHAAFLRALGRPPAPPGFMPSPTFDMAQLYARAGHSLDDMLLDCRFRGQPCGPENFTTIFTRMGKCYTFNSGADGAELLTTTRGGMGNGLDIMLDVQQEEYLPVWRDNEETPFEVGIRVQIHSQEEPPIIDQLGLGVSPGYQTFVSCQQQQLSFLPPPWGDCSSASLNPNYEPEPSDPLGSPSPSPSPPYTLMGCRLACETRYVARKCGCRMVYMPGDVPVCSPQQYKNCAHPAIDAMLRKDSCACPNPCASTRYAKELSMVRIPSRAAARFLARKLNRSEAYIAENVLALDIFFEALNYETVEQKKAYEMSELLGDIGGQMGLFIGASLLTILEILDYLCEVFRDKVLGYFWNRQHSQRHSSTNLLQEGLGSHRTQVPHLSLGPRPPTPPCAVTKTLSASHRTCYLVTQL
Description: as §1, §2

[4] = system: oxaliplatin-induced cold hypersensitivity; experiment: Oxaliplatin-induced cold allodynia in mice (acetone drop test); type: in vivo
Description: It is established that treatments with the chemotherapeutic drug oxaliplatin (OXA) induce painful peripheral neuropathy, known as CIPN, which becomes more pronounced in cold conditions. The TRPM8 channel has been implicated in mouse models of CIPN pain induced by OXA [19, 51]. In fact, the OXA-induced peripheral neuropathy mouse model is being used for the pharmacological characterization of TRPM8 antagonists. For this peripheral neuropathy assay, mice were subcutaneously (s.c.) injected with OXA at a dose of 6 mg/kg dose on days 1, 3 and 5 to male mice to induce increased sensitivity to cold, which can be monitored through the acetone drop test.
Consequently, compounds 34 and 35 have been tested for their ability to alleviate OXA-induced cold hypersensitivity after intraplantar administration (i.pl., 3, 1 and 0.1 μg). […] This effect was observed 15 min post-administration and sustained up to 60 min.
as §2
Figure 4 Effects of compounds 34 (A) and 35 (B) on the oxaliplatin (OXP)-induced cold hypersensitivity (drop acetone test). Peripheral neuropathy was induced in male mice by injecting OXA (6 mg/kg, s.c.) on days 1, 3 and 5. Control animals were treated with vehicle. Compounds 34 (A) and 35 (B) (3 µg/i.pl., 1 µg/i.pl. and 0.1 µg/i.pl.) were administered to the OXP-treated animals, and the time-course of cold hypersensitivity was measured. Data are given ± SEM (n = 5). Statistical analysis, comparing with oxaliplatin-treated mice, was performed by two-way ANOVA followed by post hoc Bonferroni test by multiple comparisons: * […], ** p < 0.01, **** p < 0.0001.

[5] = target: hCB2 (Homo sapiens, UniProt P34972); experiment: Radioligand binding at cannabinoid CB2 receptor; settings: radioligand [3H]WIN 55212-2
hCB2, sequence (P34972 whole entry): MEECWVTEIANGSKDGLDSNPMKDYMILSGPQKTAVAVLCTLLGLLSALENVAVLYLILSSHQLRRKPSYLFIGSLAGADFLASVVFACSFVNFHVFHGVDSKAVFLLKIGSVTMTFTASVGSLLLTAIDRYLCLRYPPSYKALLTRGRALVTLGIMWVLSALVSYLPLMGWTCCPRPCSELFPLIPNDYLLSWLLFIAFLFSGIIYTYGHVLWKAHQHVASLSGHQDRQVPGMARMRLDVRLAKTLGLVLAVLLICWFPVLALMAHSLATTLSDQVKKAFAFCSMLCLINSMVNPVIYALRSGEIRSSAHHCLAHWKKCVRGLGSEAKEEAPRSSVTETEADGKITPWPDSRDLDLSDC
Description: Furthermore, the investigation extended to measuring the binding affinity of compound 34 to calcitonin gene-related peptide hCGRPR, cannabinoid hCB2 and muscarinic hM3 receptors, which are all relevant to different pain conditions.

[6] = target: T3, hTRPA1 (Homo sapiens, UniProt O75762); experiment: TRPA1 channel Ca2+ microfluorimetry (allylisothiocyanate 10 μM); type: cell-based; settings: agonist allylisothiocyanate 10 μM
T3 construct: Eurofins-CEREP or Eurofins-PANLABS (contract assay)
T3 sequence (O75762 whole entry): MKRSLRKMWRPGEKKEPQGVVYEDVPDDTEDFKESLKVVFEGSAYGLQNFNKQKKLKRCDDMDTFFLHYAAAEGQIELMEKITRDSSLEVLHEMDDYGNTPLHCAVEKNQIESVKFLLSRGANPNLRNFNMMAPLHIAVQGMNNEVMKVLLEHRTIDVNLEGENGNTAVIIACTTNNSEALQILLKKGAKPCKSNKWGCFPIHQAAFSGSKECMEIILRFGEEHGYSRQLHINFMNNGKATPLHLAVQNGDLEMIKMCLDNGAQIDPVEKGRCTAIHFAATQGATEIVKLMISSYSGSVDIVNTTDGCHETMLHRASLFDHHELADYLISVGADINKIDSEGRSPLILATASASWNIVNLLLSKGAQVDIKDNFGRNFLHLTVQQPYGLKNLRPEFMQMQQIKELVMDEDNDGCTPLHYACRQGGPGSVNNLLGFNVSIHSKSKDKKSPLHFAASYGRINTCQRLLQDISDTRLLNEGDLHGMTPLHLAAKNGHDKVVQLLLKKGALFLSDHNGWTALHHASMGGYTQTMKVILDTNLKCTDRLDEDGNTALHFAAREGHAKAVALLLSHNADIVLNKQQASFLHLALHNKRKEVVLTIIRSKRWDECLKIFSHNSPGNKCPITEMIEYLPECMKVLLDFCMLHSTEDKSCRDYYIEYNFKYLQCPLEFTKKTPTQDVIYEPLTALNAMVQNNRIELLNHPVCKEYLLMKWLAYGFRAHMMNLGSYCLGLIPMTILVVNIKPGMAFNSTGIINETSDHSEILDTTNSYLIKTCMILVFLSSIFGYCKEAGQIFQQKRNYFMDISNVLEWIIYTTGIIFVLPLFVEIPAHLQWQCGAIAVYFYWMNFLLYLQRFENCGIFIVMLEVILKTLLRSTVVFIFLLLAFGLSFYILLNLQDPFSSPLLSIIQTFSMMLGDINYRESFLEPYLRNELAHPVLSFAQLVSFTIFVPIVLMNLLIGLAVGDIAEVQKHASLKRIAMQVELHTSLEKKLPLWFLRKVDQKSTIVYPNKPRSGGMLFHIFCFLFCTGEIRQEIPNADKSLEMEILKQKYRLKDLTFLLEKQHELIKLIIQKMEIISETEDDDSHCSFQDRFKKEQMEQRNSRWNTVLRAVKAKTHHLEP
Description: as §1, §2

T1 sequence (Q8NER1 whole entry): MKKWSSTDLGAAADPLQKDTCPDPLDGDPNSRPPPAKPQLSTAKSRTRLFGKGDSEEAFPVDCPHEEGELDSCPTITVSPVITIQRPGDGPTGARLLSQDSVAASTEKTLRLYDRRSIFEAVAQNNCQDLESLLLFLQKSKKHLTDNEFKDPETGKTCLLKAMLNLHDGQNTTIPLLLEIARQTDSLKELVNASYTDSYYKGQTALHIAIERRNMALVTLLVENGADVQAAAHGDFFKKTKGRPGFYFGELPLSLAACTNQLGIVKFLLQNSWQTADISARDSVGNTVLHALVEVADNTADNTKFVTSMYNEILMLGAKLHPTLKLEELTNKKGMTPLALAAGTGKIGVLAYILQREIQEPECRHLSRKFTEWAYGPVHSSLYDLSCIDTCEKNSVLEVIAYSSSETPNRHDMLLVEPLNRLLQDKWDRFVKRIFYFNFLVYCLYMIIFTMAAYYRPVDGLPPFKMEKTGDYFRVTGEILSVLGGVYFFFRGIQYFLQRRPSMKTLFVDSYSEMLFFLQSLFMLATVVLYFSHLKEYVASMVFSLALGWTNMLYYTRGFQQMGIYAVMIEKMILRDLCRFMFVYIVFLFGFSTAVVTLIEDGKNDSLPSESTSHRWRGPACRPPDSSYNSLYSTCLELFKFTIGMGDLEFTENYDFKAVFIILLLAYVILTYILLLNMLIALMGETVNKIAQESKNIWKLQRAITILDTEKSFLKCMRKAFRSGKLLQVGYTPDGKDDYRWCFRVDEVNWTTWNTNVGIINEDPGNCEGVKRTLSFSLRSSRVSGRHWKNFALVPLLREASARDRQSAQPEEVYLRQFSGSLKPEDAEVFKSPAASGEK

- activation on the TRPV1 channel ([1]; 10 µM): did not show activation
- inhibition at 10 µM ([1]; 10 μM, agonist capsaicin 30 nM): 8.9 ± 2.9%
- inhibition at 10 µM [2]: 6.9 ± 10.7%
- inhibition at 10 µM [3]: 2.2 ± 9.6%
- inhibition at 10 µM [5]: 7 ± 2.1%
- inhibition at 10 µM [6]: 2 ± 3.4%
SMILES: CC(C)CNC(=O)[C@]1(Cc2ccccc2)[C@H](C)C(=O)N1C[C@H](Cc1ccccc1)N(Cc1ccccc1)Cc1ccccc1 [Compound 34, 4S-Benzyl-4-[N-(iso-butyl)-carbamoyl]-3S-methyl-1-[(2′S-dibenzylamino-3′-phenyl)prop-1′-yl]-2-oxoazetidine]
- time the antiallodynic effect is sustained ([4]; i.pl., observed from 15 min post-administration): up to 60 min
- effect on cold-induced paw licking ([4]; male mice, OXA 6 mg/kg s.c. days 1, 3, 5, i.pl. 3, 1 and 0.1 μg): dose-dependent and significant reduction
